Reference: patent publication US20240366624A1, “METHODS AND COMPOSITIONS FOR TREATING THROMBOTIC DISEASE” (Washington University, priority 2023, published 2024)

Columns and labels:
[1] = target: T1, MAO-A (monoamine oxidase A) (Homo sapiens, UniProt P21397); test: MAO-A activity assay; assay type: biochemical; settings: 100 μM
T1 sequence (P21397 1-527): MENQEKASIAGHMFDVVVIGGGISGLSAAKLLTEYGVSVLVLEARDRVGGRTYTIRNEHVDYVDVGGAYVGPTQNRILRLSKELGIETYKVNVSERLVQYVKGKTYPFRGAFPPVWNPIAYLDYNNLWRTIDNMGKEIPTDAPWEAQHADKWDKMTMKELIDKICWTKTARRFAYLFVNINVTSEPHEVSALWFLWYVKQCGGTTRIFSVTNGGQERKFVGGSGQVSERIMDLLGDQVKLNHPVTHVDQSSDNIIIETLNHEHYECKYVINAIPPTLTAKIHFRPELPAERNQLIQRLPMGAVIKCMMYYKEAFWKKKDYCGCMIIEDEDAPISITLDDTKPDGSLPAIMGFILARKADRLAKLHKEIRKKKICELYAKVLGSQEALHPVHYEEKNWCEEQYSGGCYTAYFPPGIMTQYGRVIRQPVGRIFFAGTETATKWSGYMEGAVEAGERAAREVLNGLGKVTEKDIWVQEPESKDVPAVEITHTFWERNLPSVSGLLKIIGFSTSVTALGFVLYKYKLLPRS

[2] = H2O2 (antioxidant) activity assay; assay type: biochemical; settings: 100 μM
Source text: (§1) FIG. 17(A-F) is an exemplary embodiment of identification of novel ERO1α inhibitors by high throughput screening in accordance with the present disclosure. FIG. 17A: A scheme of an ERO1α activity assay. FIG. 17B: Screening of chemical libraries in the ERO1α activity assay. FIG. 17C: The inhibitory effect of selected compounds on ERO1α activity. FIG. 17D: The inhibitory effect of selected compounds on PDI activity. FIG. 17E: The inhibitory effect of selected compounds on H2O2 activity. FIG. 17F: The inhibitory effect of selected compounds on thiol-reacting activity. The data represent the mean±SD (n=3). *P<0.05, **P<0.01, ***P<0.001, and ****P<0.0001 vs. vehicle control, Student's t-test.
(§2) To identify a novel ERO1α inhibitor, 5800 compounds were screened using an ERO1α activity assay (FIG. 17A and FIG. 17B). […] The selected compounds were further tested in assays measuring PDI, antioxidant, and thiol-reacting activities (FIG. 17D through FIG. 17F). […] B12 inhibited P-selectin exposure and αIIbβ3 activation in agonist-activated mouse and human platelets in a concentration-dependent manner (FIG. 18B through FIG. 18E).

[3] = thiol-reacting (GSH) activity assay; assay type: biochemical; settings: 100 μM
Source text: as §1, §2

ERO1α = target: T2, ERO1α (Homo sapiens, UniProt Q96HE7); test: ERO1α activity assay; assay type: biochemical; settings: 20 μM
T2 sequence (Q96HE7 24-468): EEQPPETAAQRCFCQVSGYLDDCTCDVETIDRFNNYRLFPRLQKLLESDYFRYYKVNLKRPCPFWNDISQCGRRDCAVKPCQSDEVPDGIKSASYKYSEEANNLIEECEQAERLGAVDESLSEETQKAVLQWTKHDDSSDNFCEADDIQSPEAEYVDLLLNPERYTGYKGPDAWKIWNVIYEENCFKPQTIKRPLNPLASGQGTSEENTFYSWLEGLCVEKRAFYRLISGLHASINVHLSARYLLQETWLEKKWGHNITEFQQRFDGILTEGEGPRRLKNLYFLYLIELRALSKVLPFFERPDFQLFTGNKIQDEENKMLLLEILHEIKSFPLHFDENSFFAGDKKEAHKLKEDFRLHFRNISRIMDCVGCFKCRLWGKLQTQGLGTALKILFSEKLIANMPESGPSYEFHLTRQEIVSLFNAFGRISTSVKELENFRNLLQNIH
Source text: as §1, §2

PDI = PDI (Homo sapiens, UniProt P07237); test: PDI activity assay; assay type: biochemical; settings: 100 μM
Source text: as §1, §2

Ero1α-null platelets = test: Platelet aggregation, Ero1α-null platelets; assay type: cell-based, mouse; settings: 50 μg/mL protein, 0.025 U/mL thrombin
Protocol: FIG. 7(A-L) is an exemplary embodiment of crucial intracellular ERO1α (endoplasmic reticulum oxidoreductase 1a) for platelet activation, aggregation, and thrombus formation in accordance with the present disclosure. FIG. 7A: Ex vivo platelet thrombus formation in a flow chamber assay. Adherent and aggregated platelets were stained with rhodamine-conjugated phalloidin and imaged by confocal microscopy. Representative images (bar, 10 μm). Surface coverage and thrombus volume were measured (mean±SD, n=4). FIG. 7(B-E): Aggregation and ATP secretion of wild type (WT) and Ero1α-null platelets were induced by 0.025 U/mL thrombin, 0.05 μg/mL CRP (collagen-related peptide), 0.5 μM A23187, or 2.5 μM ADP. Platelet aggregation (i) and ATP secretion (ii). FIG. 7F: Ero1α-null platelets were pretreated with 50 μg/mL wtERO1α or wtPDI and then with 0.025 U/mL thrombin. Quantification graphs of aggregation and ATP secretion are presented as the mean±SD (n=3-4). FIG. 7G and FIG. 7H: P-selectin exposure and αIIbβ3 integrin activation of WT and Ero1α-null platelets were analyzed by flow cytometry. The data are presented as the geometric mean fluorescence intensity (MFI) value (mean±SD, n=3-4). FIG. 7I: WT and Ero1α-null platelets were treated with or without 0.025 U/mL thrombin for 1 minute in an aggregometer. The lysates were immunoprecipitated with control IgG or anti-β3 antibodies and subjected to immunoblotting with antibodies against talin1 or β3 and densitometric analysis (mean±SD, n=3). FIG. 7J: WT and Ero1α-null platelets were treated with or without 0.025 U/mL thrombin, followed by transmission electron microscopy. The original magnification was 34 800, and the extension was 313 000. Bar, 500 nm. FIG. 7K and FIG. 7L: Intravital microscopy was performed to determine the effect of 15E9 (1-3 μg/g body weight [BW]) and a blocking anti-PDI (protein disulfide isomerase) antibody (BD34, 3 μg/g BW) on platelet thrombus formation and fibrin generation at the site of laser-induced cremaster arteriolar injury (n=27-40 arterioles in 6 mice per group). The n indicates biological replicates. P values determined by unpaired Student t test (FIG. 7(A-E) and FIG. 7(G-1)), ANOVA and Dunnett test (FIG. 7F), or Mann-Whitney U test (FIG. 7K and FIG. 7L).
FIG. 9(A-C) is an exemplary embodiment of EN460 inhibiting thrombin-induced aggregation of mouse and human platelets in accordance with the present disclosure. […] P values determined by ANOVA and Dunnett's test (FIG. 9(A-B)) or Student's t-test (FIG. 9C).
FIG. 10(A-E) is an exemplary embodiment of 15E9 not affecting platelet activation and aggregation in accordance with the present disclosure. […] P values determined by unpaired Student's t-test (vs. mIgG1). […]

Chain of PDI (P07237 18-508, species assumed): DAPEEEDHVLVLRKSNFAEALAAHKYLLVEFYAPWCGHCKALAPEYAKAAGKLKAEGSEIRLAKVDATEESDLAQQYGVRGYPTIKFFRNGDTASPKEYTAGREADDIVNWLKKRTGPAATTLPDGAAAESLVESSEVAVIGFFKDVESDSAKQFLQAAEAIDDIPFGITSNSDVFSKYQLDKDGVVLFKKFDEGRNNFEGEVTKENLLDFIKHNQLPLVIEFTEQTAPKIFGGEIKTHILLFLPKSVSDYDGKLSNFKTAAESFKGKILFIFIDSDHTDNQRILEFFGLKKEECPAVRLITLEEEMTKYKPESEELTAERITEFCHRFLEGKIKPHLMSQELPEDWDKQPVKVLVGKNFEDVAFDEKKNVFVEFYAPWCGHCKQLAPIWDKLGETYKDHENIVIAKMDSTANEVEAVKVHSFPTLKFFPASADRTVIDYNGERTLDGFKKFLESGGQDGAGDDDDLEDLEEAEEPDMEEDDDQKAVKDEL

Compound | MAO-A inhibition at 100 μM (%) [1] | H2O2 inhibition at 100 μM (%) [2] | GSH inhibition at 100 μM (%) [3] | ERO1α inhibition at 20 μM (%) (ERO1α) | PDI inhibition at 100 μM (%) (PDI) | rescue of the defect in Ero1α-null platelet aggregation (Ero1α-null platelets)
O=C(COc1ccccc1)N1c2ccccc2Sc2ccccc21 [B12-3] | 24.8 ± 4% | 2.1 ± 1% | 22.3 ± 7% | 57.0 ± 19% | 10.2 ± 3% | –
O=C(COc1ccc(O)cc1)N1c2ccccc2Sc2ccccc21 [B12-4] | 34.8 ± 4% | 6.0 ± 2% | 27.2 ± 7% | 74.0 ± 17% | 13.2 ± 3% | –
N#Cc1cc(SCC(=O)N2c3ccccc3Sc3ccccc32)nc2c1CCCC2 [B12-6] | 37.7 ± 8% | 1.7 ± 1% | 30.1 ± 10% | 87.6 ± 17% | 20.2 ± 4% | –
CCCn1c(SCC(=O)N2c3ccccc3Sc3ccccc32)nc2ccccc21 [B12-7] | 39.1 ± 8% | 1.9 ± 1% | 33.3 ± 10% | 75.5 ± 20% | 30.3 ± 8% | –
O=C(COc1nc2ccccc2s1)n1c2ccccc2c2ccccc21 [B12-8*] | 22.3 ± 5% | 0.3 ± 0.1% | 13.6 ± 3% | 48.6 ± 10% | 8.6 ± 3% | –
Cc1nc2ccccc2nc1SCC(=O)N1c2ccccc2Sc2ccccc21 [B12-11] | 28.1 ± 5% | 2.3 ± 1% | 33.5 ± 4% | 82.3 ± 20% | 23.1 ± 5% | –
COc1ccc2nc(SCC(=O)n3c4ccccc4c4ccccc43)nc(C)c2c1 [B12-13*] | 36.7 ± 8% | 4.2 ± 1% | 33.1 ± 4% | 53.7 ± 9% | 19.1 ± 4% | –
CCCn1c2ccccc2c2nnc(SCC(=O)N3c4ccccc4Sc4ccccc43)nc21 [B12-14] | 28.3 ± 5% | 3.4 ± 1% | 31.9 ± 5% | 59.0 ± 6% | 21.4 ± 6% | –
CCCc1cc(O)nc(SCC(=O)N2c3ccccc3Sc3ccccc32)n1 [B12-16] | 34.3 ± 6% | 80.0 ± 18% | 21.9 ± 6% | 11.5 ± 3% | 11.9 ± 3% | –
COc1cc(O)nc(SCC(=O)N2c3ccccc3Sc3ccccc32)n1 [B12-18] | 37.5 ± 7% | 0.2 ± 0.1% | 25.9 ± 5% | 83.9 ± 16% | 12.4 ± 5% | –
Cc1cc(O)nc(SCC(=O)N2c3ccccc3Sc3ccccc32)n1 [B12-20] | 50.2 ± 7% | 2.3 ± 1% | 10.2 ± 2% | 82.3 ± 15% | 6.7 ± 2% | –
O=C(COc1nc2ccccc2s1)N1c2ccccc2Sc2ccccc21 [B12-22] | 28.8 ± 6% | 4.9 ± 1% | 62.5 ± 7% | 60.5 ± 8% | 38.5 ± 8% | –
wtPDI: recombinant wild-type PDI | – | – | – | – | – | did not rescue
